Experimental findings from patent publication US8796268B2, “Heteroaryls and uses thereof” (Millennium Pharmaceuticals, Inc., priority 2010, dated 2014) are described below.

What all share (type): biochemical
Test [1] addresses T1, Human PI3K alpha (Homo sapiens, UniProt P42336).
T1 construct: His (N); host or cells: SF9 insect cells (baculovirus)
As to the kind of experiment: Human PI3K alpha enzyme assay (HTRF). As to conditions: concentration not given, b1387 states 1.1 μM for PI3K α and β; for inhibition at 1.1 µM: read-out: p110 alpha Percent Inhibition. Background: In TR-FRET formats the signal depends on donor and acceptor labels being close together.

In test [2] the target is T2, Human PI3K beta (Homo sapiens, UniProt P42338).
T2 construct: His (N); host or cells: SF9 insect cells (baculovirus)
T2 sequence (P42338 whole entry): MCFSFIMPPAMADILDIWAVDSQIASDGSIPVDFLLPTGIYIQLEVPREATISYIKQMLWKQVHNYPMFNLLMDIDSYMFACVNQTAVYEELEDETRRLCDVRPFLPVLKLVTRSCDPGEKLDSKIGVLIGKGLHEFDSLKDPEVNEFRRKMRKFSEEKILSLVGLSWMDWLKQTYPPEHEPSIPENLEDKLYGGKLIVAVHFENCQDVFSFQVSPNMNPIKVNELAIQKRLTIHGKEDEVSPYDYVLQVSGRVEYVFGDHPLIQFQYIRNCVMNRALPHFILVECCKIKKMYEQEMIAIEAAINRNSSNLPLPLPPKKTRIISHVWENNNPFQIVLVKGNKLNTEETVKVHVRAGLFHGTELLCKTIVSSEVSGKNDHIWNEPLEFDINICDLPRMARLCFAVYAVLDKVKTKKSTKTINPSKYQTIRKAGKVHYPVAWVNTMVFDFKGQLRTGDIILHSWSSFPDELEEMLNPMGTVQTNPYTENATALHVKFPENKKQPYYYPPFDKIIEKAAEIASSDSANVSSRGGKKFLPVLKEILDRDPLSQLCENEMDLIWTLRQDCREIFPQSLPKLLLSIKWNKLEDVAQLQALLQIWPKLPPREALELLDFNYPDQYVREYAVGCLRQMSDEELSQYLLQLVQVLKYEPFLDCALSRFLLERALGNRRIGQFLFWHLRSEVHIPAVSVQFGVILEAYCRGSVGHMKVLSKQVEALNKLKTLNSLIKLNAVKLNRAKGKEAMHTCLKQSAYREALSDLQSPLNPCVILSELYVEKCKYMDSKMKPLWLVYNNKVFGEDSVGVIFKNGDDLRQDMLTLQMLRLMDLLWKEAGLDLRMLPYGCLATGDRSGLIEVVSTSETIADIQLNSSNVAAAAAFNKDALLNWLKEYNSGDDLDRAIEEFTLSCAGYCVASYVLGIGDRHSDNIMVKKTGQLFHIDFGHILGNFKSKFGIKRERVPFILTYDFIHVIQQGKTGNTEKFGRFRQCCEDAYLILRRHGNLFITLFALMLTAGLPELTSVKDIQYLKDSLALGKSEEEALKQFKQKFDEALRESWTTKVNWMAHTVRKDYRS
T2 sequence (P27986 whole entry partner): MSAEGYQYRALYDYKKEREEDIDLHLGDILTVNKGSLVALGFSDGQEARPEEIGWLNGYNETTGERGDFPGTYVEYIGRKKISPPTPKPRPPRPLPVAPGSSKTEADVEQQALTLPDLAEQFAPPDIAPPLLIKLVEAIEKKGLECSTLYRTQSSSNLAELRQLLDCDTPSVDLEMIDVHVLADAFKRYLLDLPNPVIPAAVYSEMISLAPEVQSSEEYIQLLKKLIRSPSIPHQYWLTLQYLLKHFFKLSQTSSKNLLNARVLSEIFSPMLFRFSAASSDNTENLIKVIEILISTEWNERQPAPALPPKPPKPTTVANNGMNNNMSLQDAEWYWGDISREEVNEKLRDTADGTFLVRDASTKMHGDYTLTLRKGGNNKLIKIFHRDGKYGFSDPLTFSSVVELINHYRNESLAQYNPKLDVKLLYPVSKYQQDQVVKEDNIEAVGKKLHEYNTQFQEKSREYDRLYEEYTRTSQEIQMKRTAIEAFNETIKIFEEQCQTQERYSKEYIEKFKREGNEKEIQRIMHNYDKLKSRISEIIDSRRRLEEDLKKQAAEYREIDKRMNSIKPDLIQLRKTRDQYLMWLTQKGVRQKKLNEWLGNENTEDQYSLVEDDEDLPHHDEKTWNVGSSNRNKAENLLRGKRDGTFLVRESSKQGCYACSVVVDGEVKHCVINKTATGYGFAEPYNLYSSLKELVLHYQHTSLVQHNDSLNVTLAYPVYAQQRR
As to the kind of experiment: Human PI3K beta enzyme assay (HTRF). As to conditions: concentration not given, b1387 states 1.1 μM for PI3K α and β; for inhibition at 1.1 µM: read-out: p110 beta Percent Inhibition. The gist of the method: (§1)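 Compounds were mixed with 25 uM ATP, then with 3.5 uM di-C8 PI(4,5)P2 and His-tagged PI3K isoform (β 5.25 nM, δ 0.75 nM, γ 5 nM) at pH 7.00. After 30 min at room temperature, EDTA stopped the reaction and PIP3 was measured by HTRF over 1 h.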

The target of test [3] is T3, Human PI3K delta (Homo sapiens, UniProt O00329).
T3 construct: His (N); host or cells: SF9 insect cells (baculovirus)
T3 sequence (O00329 whole entry): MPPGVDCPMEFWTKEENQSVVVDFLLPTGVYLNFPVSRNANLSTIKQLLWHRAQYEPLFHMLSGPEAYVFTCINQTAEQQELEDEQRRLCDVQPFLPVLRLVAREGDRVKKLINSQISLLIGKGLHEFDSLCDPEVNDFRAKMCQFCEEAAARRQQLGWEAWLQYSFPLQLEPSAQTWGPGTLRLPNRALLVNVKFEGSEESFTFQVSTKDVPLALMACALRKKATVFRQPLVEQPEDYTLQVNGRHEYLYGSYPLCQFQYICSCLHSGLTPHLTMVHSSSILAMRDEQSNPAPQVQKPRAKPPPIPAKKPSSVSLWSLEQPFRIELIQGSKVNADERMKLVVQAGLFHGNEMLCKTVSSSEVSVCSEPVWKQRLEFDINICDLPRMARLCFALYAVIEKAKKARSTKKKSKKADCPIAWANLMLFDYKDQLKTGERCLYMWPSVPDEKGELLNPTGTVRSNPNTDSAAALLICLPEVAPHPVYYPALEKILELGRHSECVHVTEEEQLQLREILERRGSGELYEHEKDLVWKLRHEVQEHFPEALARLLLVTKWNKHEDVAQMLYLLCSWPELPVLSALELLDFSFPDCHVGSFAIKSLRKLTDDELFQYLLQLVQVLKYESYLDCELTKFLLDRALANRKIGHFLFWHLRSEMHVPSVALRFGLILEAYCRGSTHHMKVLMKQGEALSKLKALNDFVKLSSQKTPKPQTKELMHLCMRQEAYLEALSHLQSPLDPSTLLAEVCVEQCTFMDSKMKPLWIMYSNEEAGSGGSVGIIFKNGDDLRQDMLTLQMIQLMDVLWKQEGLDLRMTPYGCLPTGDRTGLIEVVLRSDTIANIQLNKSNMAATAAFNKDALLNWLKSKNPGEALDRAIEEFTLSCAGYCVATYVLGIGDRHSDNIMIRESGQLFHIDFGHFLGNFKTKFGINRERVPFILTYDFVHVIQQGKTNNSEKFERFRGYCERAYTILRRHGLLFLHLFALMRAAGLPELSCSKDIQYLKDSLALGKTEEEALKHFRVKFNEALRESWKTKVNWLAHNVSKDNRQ
T3 sequence (P27986 whole entry partner): as the sequence (P27986 whole entry partner) above
Put plainly: Human PI3K delta enzyme assay (HTRF). As to conditions: concentration not given, b1389 states 1.0 μM for PI3K δ and γ; for inhibition at 1 µM: read-out: p110 delta Percent Inhibition. Summed up:
as §1

The target in test [4] is T4, Human PI3K gamma (Homo sapiens, UniProt P48736).
T4 construct: His (N); host or cells: SF9 insect cells (baculovirus)
T4 sequence (P48736 whole entry): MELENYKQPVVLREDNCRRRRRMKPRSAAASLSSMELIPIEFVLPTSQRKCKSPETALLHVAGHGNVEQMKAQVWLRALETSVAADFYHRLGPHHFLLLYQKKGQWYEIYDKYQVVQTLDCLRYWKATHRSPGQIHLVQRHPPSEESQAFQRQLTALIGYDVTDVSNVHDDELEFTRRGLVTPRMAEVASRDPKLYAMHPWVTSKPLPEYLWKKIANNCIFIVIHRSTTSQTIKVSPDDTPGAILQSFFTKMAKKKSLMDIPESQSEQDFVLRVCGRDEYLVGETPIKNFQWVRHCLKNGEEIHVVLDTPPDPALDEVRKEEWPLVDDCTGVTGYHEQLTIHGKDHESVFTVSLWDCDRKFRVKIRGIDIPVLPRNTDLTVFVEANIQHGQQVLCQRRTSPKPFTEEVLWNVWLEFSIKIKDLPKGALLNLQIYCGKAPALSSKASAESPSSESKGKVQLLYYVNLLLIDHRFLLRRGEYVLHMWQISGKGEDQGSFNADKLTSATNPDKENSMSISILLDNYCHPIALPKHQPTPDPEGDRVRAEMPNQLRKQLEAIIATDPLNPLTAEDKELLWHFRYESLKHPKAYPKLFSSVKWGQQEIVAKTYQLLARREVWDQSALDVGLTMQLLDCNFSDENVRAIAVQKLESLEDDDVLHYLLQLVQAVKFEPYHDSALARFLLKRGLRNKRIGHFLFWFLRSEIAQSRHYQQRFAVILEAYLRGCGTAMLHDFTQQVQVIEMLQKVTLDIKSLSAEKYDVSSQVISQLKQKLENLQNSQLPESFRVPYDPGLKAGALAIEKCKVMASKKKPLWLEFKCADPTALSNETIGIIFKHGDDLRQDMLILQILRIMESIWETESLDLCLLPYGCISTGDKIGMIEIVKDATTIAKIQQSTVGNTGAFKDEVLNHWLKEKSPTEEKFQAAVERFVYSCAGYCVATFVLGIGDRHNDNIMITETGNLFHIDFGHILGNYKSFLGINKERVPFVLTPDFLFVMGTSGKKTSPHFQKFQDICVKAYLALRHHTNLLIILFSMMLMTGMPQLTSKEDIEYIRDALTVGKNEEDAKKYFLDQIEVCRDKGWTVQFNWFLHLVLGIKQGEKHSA
Put plainly: Human PI3K gamma enzyme assay (HTRF). As to conditions: concentration not given, b1389 states 1.0 μM for PI3K δ and γ; for inhibition at 1 µM: read-out: p110 gamma Percent Inhibition. The gist of the method: as §1

T1 sequence (P42336 whole entry): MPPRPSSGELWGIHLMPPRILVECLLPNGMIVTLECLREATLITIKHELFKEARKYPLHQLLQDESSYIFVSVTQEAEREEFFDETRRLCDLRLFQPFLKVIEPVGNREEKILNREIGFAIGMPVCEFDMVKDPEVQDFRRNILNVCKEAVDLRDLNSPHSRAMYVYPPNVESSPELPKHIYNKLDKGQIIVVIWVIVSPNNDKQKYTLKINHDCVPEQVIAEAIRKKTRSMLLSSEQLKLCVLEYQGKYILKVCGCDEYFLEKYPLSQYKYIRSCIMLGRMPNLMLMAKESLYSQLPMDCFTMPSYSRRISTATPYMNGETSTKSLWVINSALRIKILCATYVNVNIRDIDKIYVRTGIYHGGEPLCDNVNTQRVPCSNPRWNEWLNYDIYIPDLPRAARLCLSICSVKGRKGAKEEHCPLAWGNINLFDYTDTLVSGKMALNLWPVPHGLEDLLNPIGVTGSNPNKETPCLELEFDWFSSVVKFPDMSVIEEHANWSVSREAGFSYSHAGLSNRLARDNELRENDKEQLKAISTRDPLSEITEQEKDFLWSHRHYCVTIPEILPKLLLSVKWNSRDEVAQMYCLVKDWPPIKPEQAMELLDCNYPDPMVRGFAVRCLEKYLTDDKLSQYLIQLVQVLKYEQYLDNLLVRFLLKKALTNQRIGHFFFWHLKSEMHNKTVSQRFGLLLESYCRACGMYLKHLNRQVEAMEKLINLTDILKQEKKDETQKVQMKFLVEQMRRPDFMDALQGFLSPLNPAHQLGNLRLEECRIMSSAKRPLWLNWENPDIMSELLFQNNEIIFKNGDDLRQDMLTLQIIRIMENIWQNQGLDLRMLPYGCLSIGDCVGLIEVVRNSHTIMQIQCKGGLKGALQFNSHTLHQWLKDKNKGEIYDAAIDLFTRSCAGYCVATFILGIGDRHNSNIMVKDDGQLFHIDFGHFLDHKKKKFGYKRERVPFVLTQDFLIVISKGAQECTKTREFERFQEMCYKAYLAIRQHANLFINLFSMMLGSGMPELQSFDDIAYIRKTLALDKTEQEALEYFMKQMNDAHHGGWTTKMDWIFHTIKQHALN
T1 sequence (P27986 whole entry partner): as the sequence (P27986 whole entry partner) above

On to `COc1cc(C(O)c2cc(-c3ccnc(C)c3)sc2-c2nnc[nH]2)c(F)cc1Cl` (stereo not shown) [Compound 285], for which the “p110 alpha Percent Inhibition” value in test [1] stood at 16%. Also, the “p110 beta Percent Inhibition” value in test [2] came to 83%. In addition, the “p110 delta Percent Inhibition” value in test [3] is on record as 77%. Besides, in test [4], the “p110 gamma Percent Inhibition” value is on record as 18%.

Regarding `O=C(O)c1sc(N2CCOCC2)nc1Cc1cc2ccccc2s1` [Compound 286], the values for the inhibition at 1.1 µM in test [1] and in test [2] were 36% and 92%, respectively. Besides, the inhibition at 1 µM was 104% in test [3] and 50% in test [4].

With `COc1ccc2cc(Cc3nc(N4CCOCC4)sc3C(=O)O)ccc2c1` [Compound 288], the inhibition at 1.1 µM in test [1] is 14%; in test [2], 85%. The inhibition at 1 µM in test [3] was 76%; in test [4] it was 19%.

As to `Cc1nc2cc(Cc3nc(N4CCOCC4)sc3C(=O)O)ccc2s1` [Compound 289], the inhibition at 1.1 µM in test [1] amounted to 11%; in test [2] it was 32%. Also, the inhibition at 1 µM in test [3] was 32%; in test [4] it was 10%.

`O=C(O)c1sc(N2CCOCC2)nc1Cc1cc(Cl)c(Cl)cc1F` [Compound 290]: the inhibition at 1.1 µM in test [1] turned out to be 23%; in test [2], 104%. Also, the inhibition at 1 µM in test [3] turned out to be 104%; in test [4], 49%.

Regarding `N#Cc1c(N2CCOCC2)sc(C(=O)O)c1C(N)c1ccc(Cl)c(Cl)c1` (stereo not shown) [Compound 291], the inhibition at 1.1 µM in test [1] worked out at 36%; in test [2], 107%. Moreover, the inhibition at 1 µM in test [3] was found to be 105%; in test [4], 57%.

`O=C(O)c1sc(N2CCOCC2)nc1Cc1ccc2cnccc2c1` [Compound 292]: the results for the inhibition at 1.1 µM in test [1] and in test [2] were 4% and 82%, respectively. The inhibition at 1 µM in test [3] turned out to be 56%; in test [4] it was 6%.

As for `N#Cc1c(N2CCOCC2)sc(C(=O)O)c1Cn1cnc2ccccc2c1=O` [Compound 294, 4-cyano-5-(morpholin-4-yl)-3-[(4-oxoquinazolin-3(4H)-yl)methyl]thiophene-2-carboxylic acid], the figures for the inhibition at 1.1 µM in test [1] and in test [2] were 47% and 94%, respectively. For the same molecule, the inhibition at 1 µM amounted to 101% in test [3] and 35% in test [4].

Regarding `O=C(O)c1sc(N2CCOCC2)c(C#Cc2ccccc2)c1Cc1ccc(Cl)c(Cl)c1` [Compound 296, 3-(3,4-dichlorobenzyl)-5-(morpholin-4-yl)-4-(phenylethynyl)thiophene-2-carboxylic acid], the inhibition at 1.1 µM in test [1] came to 37%; in test [2], 79%. Besides, the results for the inhibition at 1 µM in test [3] and in test [4] were 107% and 14%, respectively.

Regarding `N#Cc1c(N2CCOC(CO)C2)sc(C(=O)O)c1Cc1ccc2ccccc2c1` (stereo not shown) [Compound 297, 4-cyano-5-[2-(hydroxymethyl)morpholin-4-yl]-3-(2-naphthylmethyl)thiophene-2-carboxylic acid], the inhibition at 1.1 µM in test [1] is 26%; in test [2], 104%. Also, the inhibition at 1 µM in test [3] is 77%; in test [4], 33%.

As to `O=C(NO)c1sc(N2CCOCC2)nc1Cc1ccc(Cl)c(Cl)c1` [Compound 298, 4-(3,4-dichlorobenzyl)-N-hydroxy-2-(morpholin-4-yl)-1,3-thiazole-5-carboxamide], the figures for the inhibition at 1.1 µM in test [1] and in test [2] were 11% and 95%, respectively. Moreover, the figures for the inhibition at 1 µM in test [3] and in test [4] were 103% and 38%, respectively.

For `O=C(O)c1sc(N2CCOCC2)nc1Cc1ccc2cccc(F)c2c1` [Compound 299], the inhibition at 1.1 µM in test [1] stood at 39%; in test [2], 109%. For the same molecule, the inhibition at 1 µM turned out to be 108% in test [3] and 42% in test [4].

As to `COc1ccc2cc(Cc3c(C(=O)O)sc(N4CCOCC4)c3C#N)ccc2c1` [Compound 301], the inhibition at 1.1 µM in test [1] was determined as 55%; in test [2], 107%. The inhibition at 1 µM in test [3] is 89%; in test [4] it was 49%.

With `Cn1c(Cc2nc(N3CCOCC3)sc2C(=O)O)cc2ccccc21` [Compound 302], the figures for the inhibition at 1.1 µM in test [1] and in test [2] were 21% and 100%, respectively. Further, the inhibition at 1 µM in test [3] stood at 97%; in test [4], 15%.

Turning to `O=C(O)c1sc(N2CCOCC2)nc1Cc1cc2cc(Br)ccc2s1` [Compound 303], the inhibition at 1.1 µM in test [1] amounted to 99%; in test [2], 110%. Besides, the values for the inhibition at 1 µM in test [3] and in test [4] were 115% and 69%, respectively.

As for `CC(C)C(c1ccc(Cl)cc1)c1nc(N2CCOCC2)sc1C(=O)O` (stereo not shown) [Compound 304], the figures for the inhibition at 1.1 µM in test [1] and in test [2] were 6% and 25%, respectively. The figures for the inhibition at 1 µM in test [3] and in test [4] were 32% and 7%, respectively.

In the case of `COCC(c1ccc2ccccc2c1)c1c(C(=O)O)sc(N2CCOCC2)c1C#N` (stereo not shown) [Compound 306], the inhibition at 1.1 µM in test [1] came out at 81%; in test [2] it was 109%. Further, the figures for the inhibition at 1 µM in test [3] and in test [4] were 108% and 51%, respectively.

On to `N#Cc1c(N2CCOCC2)sc(C(=O)O)c1Cc1ccc2ccncc2c1` [Compound 309, 4-cyano-3-(isoquinolin-7-ylmethyl)-5-(morpholin-4-yl)thiophene-2-carboxylic acid], for which the inhibition at 1.1 µM in test [1] was 56%; in test [2], 101%. The inhibition at 1 µM in test [3] is 108%; in test [4] it was 66%.

With `O=C(O)c1sc(N2CCOCC2)nc1Cc1ccc2ccc(F)cc2c1` [Compound 310], the inhibition at 1.1 µM is 34% in test [1] and 106% in test [2]. The inhibition at 1 µM in test [3] turned out to be 105%; in test [4] it was 64%.

On to `N#Cc1c(N2CCOCC2)sc(C(=O)O)c1Cc1ccc2sccc2c1` [Compound 311], for which the inhibition at 1.1 µM in test [1] worked out at 55%; in test [2], 104%. The inhibition at 1 µM in test [3] amounted to 105%; in test [4], 64%.

In the case of `N#Cc1c(N2CCOCC2)sc(C(=O)O)c1Cc1cc2cc(F)ccc2[nH]1` [Compound 312], the results for the inhibition at 1.1 µM in test [1] and in test [2] were 64% and 105%, respectively. Also, the values for the inhibition at 1 µM in test [3] and in test [4] were 92% and 47%, respectively.

`N#Cc1c(N2CCOCC2)sc(C(=O)O)c1C(CCO)c1ccc2ccccc2c1` (stereo not shown) [Compound 313]: the “p110 alpha Percent Inhibition” value in test [1] was found to be 73%. In test [2], the inhibition at 1.1 µM worked out at 117%. In addition, in test [3], the inhibition at 1 µM was 86%. Further, the “p110 gamma Percent Inhibition” value in test [4] is 30%.

As for `O=C(O)c1sc(N2CCOCC2)nc1Cc1cc2ccccc2cc1F` [Compound 314], the results for the inhibition at 1.1 µM in test [1] and in test [2] were 42% and 109%, respectively. In addition, the inhibition at 1 µM in test [3] was determined as 104%; in test [4] it was 42%.

As to `N#Cc1c(N2CCOCC2)sc(C(=O)O)c1Cc1ccc2cc(F)ccc2c1` [Compound 315], the inhibition at 1.1 µM in test [1] is 97%; in test [2] it was 110%. Besides, the inhibition at 1 µM in test [3] was 114%; in test [4], 75%.

With `N#Cc1c(N2CCOCC2)sc(-c2nnn[nH]2)c1Cc1ccc2ccccc2c1` [Compound 316, 2-(morpholin-4-yl)-4-(2-naphthylmethyl)-5-(1H-tetrazol-5-yl)thiophene-3-carbonitrile], the inhibition at 1.1 µM in test [1] was found to be 78%; in test [2] it was 106%. Besides, the inhibition at 1 µM was 111% in test [3] and 62% in test [4].

For `CS(=O)(=O)NC(c1ccc(Cl)cc1)c1c(C(=O)O)sc(N2CCOCC2)c1C#N` (stereo not shown) [Compound 317], the inhibition at 1.1 µM in test [1] was found to be 20%; in test [2] it was 77%. The inhibition at 1 µM in test [3] amounted to 70%; in test [4] it was 29%.

Turning to `NC(=O)c1ccc2ccc(Cc3nc(N4CCOCC4)sc3C(=O)O)cc2c1` [Compound 318], the results for the inhibition at 1.1 µM in test [1] and in test [2] were 18% and 96%, respectively. Also, the inhibition at 1 µM in test [3] amounted to 76%; in test [4], 14%.

`O=C(O)c1sc(N2CCOCC2)nc1Cc1ccc2ccccc2c1F` [Compound 319]: the inhibition at 1.1 µM in test [1] came out at 59%; in test [2], 105%. In addition, the inhibition at 1 µM worked out at 113% in test [3] and 50% in test [4].

`O=C(O)c1sc(N2CCOCC2)c(F)c1Cc1ccc(Cl)c(Cl)c1` [Compound 320, 3-(3,4-dichlorobenzyl)-4-fluoro-5-morpholinothiophene-2-carboxylic acid]: the inhibition at 1.1 µM turned out to be 16% in test [1] and 94% in test [2]. Also, the inhibition at 1 µM in test [3] was found to be 97%; in test [4], 35%.

Consider `CC(c1ccc(Cl)c(Cl)c1)c1c(C(=O)O)sc(N2CCOCC2)c1C#N` (stereo not shown) [Compound 321], for which, in test [1], the inhibition at 1.1 µM amounted to 67%. The “p110 beta Percent Inhibition” value in test [2] worked out at 73%. Also, the “p110 delta Percent Inhibition” value in test [3] came out at 86%. Moreover, in test [4], the inhibition at 1 µM was found to be 59%.

As for `N#Cc1c(N2CCOCC2)sc(C(=O)O)c1C(CCF)c1ccc2ccccc2c1` (stereo not shown) [Compound 322], in test [1], the “p110 alpha Percent Inhibition” value amounted to 64%. The inhibition at 1.1 µM in test [2] was 104%. The “p110 delta Percent Inhibition” value in test [3] was found to be 67%. In addition, the “p110 gamma Percent Inhibition” value in test [4] worked out at 28%.
